This assay addresses T1, E-selectin (Homo sapiens, UniProt P16581).
T1 sequence (P16581 whole entry): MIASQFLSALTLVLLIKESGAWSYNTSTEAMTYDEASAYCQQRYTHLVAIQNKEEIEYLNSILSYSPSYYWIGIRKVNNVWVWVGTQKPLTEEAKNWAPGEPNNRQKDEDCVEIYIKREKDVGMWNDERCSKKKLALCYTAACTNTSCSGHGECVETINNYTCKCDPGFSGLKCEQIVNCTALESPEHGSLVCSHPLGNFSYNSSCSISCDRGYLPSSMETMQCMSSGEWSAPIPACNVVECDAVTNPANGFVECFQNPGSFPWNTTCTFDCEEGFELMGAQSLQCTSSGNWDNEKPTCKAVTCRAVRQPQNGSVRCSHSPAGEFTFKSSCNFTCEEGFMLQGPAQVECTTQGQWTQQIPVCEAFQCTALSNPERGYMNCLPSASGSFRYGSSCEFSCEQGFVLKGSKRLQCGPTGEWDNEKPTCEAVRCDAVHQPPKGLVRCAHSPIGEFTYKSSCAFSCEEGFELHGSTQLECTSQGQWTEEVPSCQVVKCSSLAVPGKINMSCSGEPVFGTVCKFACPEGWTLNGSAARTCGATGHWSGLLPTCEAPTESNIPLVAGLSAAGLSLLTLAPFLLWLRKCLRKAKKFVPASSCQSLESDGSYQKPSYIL
Description: Compound was evaluated for the Selectin E binding activity.

Molecules are shown by their SMILES.

The compound `CC(=O)N[C@H]1[C@H]([C@H](O)[C@H](O)CO)O[C@@](O[C@H]2[C@@H](O)[C@@H](CO)O[C@@H](O[C@@H]([C@H](O[C@@H]3O[C@@H](C)[C@@H](O)[C@@H](O)[C@@H]3O)[C@H](C=O)NC(C)=O)[C@H](O)CO)[C@@H]2O)(C(=O)O)C[C@@H]1O` [SIALYL LEWIS X] registered an IC50 greater than 10 µM.

For orientation: IC50 means the midpoint of a concentration-inhibition curve. A low value points to greater potency in that assay.

The record behind these values is ChEMBL document CHEMBL1130612, “Exploration of beta-turn scaffolding motifs as components of sialyl Le(X) mimetics and their relevance to P-selectin” (Bioorg Med Chem Lett, 1998).
